Experimental data taken from patent publication US4020111A, “Propynyloxy alkyl arene insecticides” (priority 1975, dated 1977).

Key:
[1] = tested on: polyvalent resistant (CH strain) houseflies; test: whole plant or invertebrate; assay type: in vivo, housefly (CH strain); details: Musca domestica, topical, 24 h
Protocol: The effect of O-(2-propynyl) oximes with Dimetilan and with GS 13798 was obtained from tests on polyvalent resistant (CH strain) houseflies that had been chilled and to the dorsal region of which was applied an acetone solution of synergist and insecticide at a ratio of two to one. Duplicate tests were performed using 10 four to five-day old female houseflies per test. After dosage, the flies were put in a plastic petri dish with cotton soaked in a sugar-water solution. These doses of insecticide used without synergist caused 10-40% mortality.
(§1) In Table IX, and in the tables following it, the doses of topically applied insecticides and of synergists unless otherwise noted are expressed as micrograms per fly (μg/fly).
The effect of compounds II-C, II-D and II-E with Dimetilan and GS 13798 was determined, following the procedure of Example 5, from tests on polyvalent resistant (CH strain) houseflies. These doses of insecticide used without synergist caused 10-40% mortality.
(§2) The synergistic effect with GS 13005 of compounds I-A, I-B, I-D, I-E, I-F, I-G and I-I was determined from topical application tests to IN/WHO strain, Rutgers A strain and polyvalent CH strain houseflies using the procedures of Example 5. The percent kills of the IN/WHO strain flies after 24 hours are shown in Table XXVIII; of the Rutgers A strain, in Table XXIX; and of the polyvalent CH strain, in Table XXX. The doses of insecticide alone to the CH strain files caused 10-40% mortality.
(§3) The synergistic effect with Diazinon and GS 13005 of various of the benzyl 2-propynyl ethers identified in Tables II and IIa was determined by topical application tests on IN/WHO strain, and Rutgers A strain and polyvalent, resistant, CH strain houseflies using the procedures of Example 5. The percent kills after 24 hours of IN/WHO strain flies are shown in Table XXXI; of Rutgers A strain flies, in Table XXXII; and of CH strain flies, in Table XXXIII. The doses of insecticide alone to the CH strain flies caused 10-40% mortality.
The synergistic effect with pyrethrum of various synergist compounds was determined by topical application tests on polyvalent, resistant CH strain houseflies following the procedure of Example 5. Application of the insecticide alone caused 10-40% mortality.

[2] = tested on: IN/WHO strain house flies; test: topical application test, percent kill after 24 hours, IN/WHO strain; assay type: in vivo, house fly (susceptible IN/WHO strain)
Protocol: as §1
The synergistic effect of O-(2-propynyl) oximes with mobam was determined from topical application tests on susceptible, female, IN/WHO strain house flies and from tests on resistant, female, Rutgers A strain house flies. The synergist and insecticide were dissolved in ACS Grade acetone in such quantities that a 1.0μ liter volume applied to the thorax of 3-to-5 day old CO2 -anesthetized female adult house flies contained the desired dosage. After being treated, the flies were confined, 10 to a plaster petri dish, with 3-5 dishes/treatment, and held for 24-hr. observation of mortality. Reconstituted skim milk on cotton dental wicks was provided during the holding period. The percent kills after 24 hours are shown in Table X for the IN/WHO strain and Table XI for the Rutgers A strain.
The synergistic effect of benzyl 2-propynyl ethers with mobam was determined from topical application tests on IN/WHO and Rutgers A strain houseflies, following the procedure of Example 5. The percent kills after 24 hours are shown in Table XIV for the IN/WHO strain and in Table XV for the Rutgers A strain.
The effects of varying the insecticide dose and the synergist-insecticide ratio are further illustrated, with synergist compounds II-D, II-E, II-F and Mobam insecticide, in Tables XVI, XVII and XVIII.
The synergistic effect on IN/WHO flies of synergist compound II-K with Dimetilan, pyrolan, Baygon and HRS 1422 is illustrated by the 24 hour percent mortality data in Tables XIX, XX and XXI.
The effect on IN/WHO flies of synergist compound IV-C, identified in Table IV, with mobam was determined by the topical application procedure of Example 5.
The synergistic effect with Diazinon of compounds I-B, I-D, I-F, I-G, I-H and I-I, identified in Tables I and Ia, was determined from topical application tests on IN/WHO strain houseflies and on Rutgers A strain houseflies by the procedure of Example 5. The percent kills after 24 hours are shown in Table XXV for the IN/WHO strain and Table XXVI for the Rutgers A strain.
as §2, §3
The synergist effect on IN/WHO flies of synergist compound II-K with Gardona and Bidrin is illustrated by the 24 hour percent mortality data in Tables XXXIV and XXXV.
The synergistic effect on IN/WHO strain flies and Rutgers A strain flies of compound IV-C with GS 13005 and with Diazinon was determined by the topical application procedure of Example 5. The percent kills of IN/WHO strain flies after 24 hours are shown in Tables XXXVI and XXXVII; the percent kills of Rutgers A strain flies are shown in Tables XXXVIII and XXXIX.

[3] = tested on: Wilson strain house flies; assay type: in vivo, house fly (susceptible Wilson strain); details: for Contact Synergistic Ratio, Carbaryl (LC50 insecticide alone / LC50 with synergist): in vivo; for Contact Synergistic Ratio, Pyrolan (LC50 insecticide alone / LC50 with synergist): synergist to insecticide 5:1 by weight, 24 h
Protocol: The required solutions of the insecticide and of the synergist compound were prepared in acetone at a concentration of one milligram per milliliter. One-pint wide mouth glass jars were coated wiith the appropriate insecticide-synergist combination by rolling the jars containing aliquots of the appropriate solutions diluted to three milliliters with acetone to deposit, by evaporation, a film of the test materials. The flies were transferred under carbon dioxide anesthesia and held in the jar at room temperature. Perforated aluminum foil was used to cover the jars and to hold cotton saturated with 10% sugar solution. Counts were made at intervals, but the recorded mortality was based on 24-hour kill, rather than knockdown. All prostrate nonmoving flies were considered dead. A determination was then made of the contact synergistic ratio [SR], which is the ratio of the LC50 of insecticide alone to the LC50 of the insecticide when applied together with the synergist. The LC50 of the insecticide was estimated from a log-probit plot of percent kill versus dosage. […] The LC50 of the combination of insecticide and synergist was determined at a synergist to insecticide parts by weight ratio of five to one.

mice [4] = test: extension of Secobarbital sleeping time by synergists; assay type: in vivo, Swiss albino white male mice; details: Secobarbital 37 mg/K; for Relative Sleeping Time: treated/control
Protocol: (§4) The selectivity of the synergist compounds of this invention is illustrated by the results of sleeping-time extension tests and of acute toxicity tests on Swiss albino white male mice.
(§5) The effect of various synergist compounds on sleeping time of sodium secobarbital [Secobarbital] and of 3,3-diethyl-5-methyl-2,4-dioxypiperidine [Noludar] was determined by administering the drug, with and without synergist, to approximately 38-day old male mice weighing from 25 to 30 grams. Synergists were administered in each of two doses, 74.0 mg/kg (dilution being 2.0 mg/0.1 ml corn oil), and 110.0 mg/kg (dilution 3.0 mg/0.1 ml oil). Secobarbital was administered at a dose of 37.0 mg/kg (dilution 1.0 mg/0.1 ml water). Noludar was administered at a dose of 110.0 mg/kg (dilution 3.0 mg/0.1 ml water). The synergist was administered one hour prior to administration of the Secobarbital or Noludar. Secobarbital and Noludar sleeping times were obtained for both the control (drug only) and the treated (synergist plus drug) mice by noting the time lapse between the administration of the drug and the recovery of the righting reflex, i.e. when the animal regains conciousness and can walk up an inclined wooden tray with coordination. The relative sleeping time (R.S.) was noted. The R.S. is the extended sleeping time in the treated mice (synergist plus drug) divided by the sleeping time in the control mice (drug only). The mean sleeping time for the treated mice and the R.S. are shown on Table XXXXIV for various synergist compounds.

mice [5] = test: extension of Noludar sleeping time by synergists; assay type: in vivo, Swiss albino white male mice; details: Noludar 110 mg/K, synergist 110 mg/K; for Relative Sleeping Time: treated/control
Protocol: as §4, §5

mice [6] = test: synergism of acute toxicity of Dimetilan, GS 13005, Secobarbital and Methadone (intraperitoneal); assay type: in vivo, Swiss albino white male mice; details: for number of mice dead: 48 hours, of eight mice
Protocol: The synergism of the acute toxicity of Dimetilan by various synergists was determined by tests on Swiss albino, white male mice aged 5 to 6 weeks and weighing 23 to 27 grams. The synergists and insecticides were dissolved in corn oil and the drugs were dissolved in distilled water. All compounds were administered intraperitoneally by injection in the lower quadrent of the abdomen. The synergist was administered in 0.1 ml of corn oil 1 hour prior to administration of the insecticide. Eight mice were treated, per dosage, with each synergist. The mice were watched for a minimum of 6 hours while held in a glass jar with bedding individually after intraperitoneal injection of the test solutions. Lethality was noted, the animals were weighed and transferred in cages, and food and water were supplied. Control mice were given 0.1 ml of corn oil at the time of administration of the synergist to the test mice and 0.1 ml corn oil plus Dimetilan at the time of administration of the insecticide to the test mice.
By the same procedure, the synergism of acute toxicity of GS 13005, Secobarbital and 6-dimethylamino-4,4-diphenyl-3-heptanone [Methadone] was determined.

mice [7] = test: acute toxicity of Dimetilan alone and of synergist alone (intraperitoneal); assay type: in vivo, Swiss albino white male mice; details: synergist alone 1000 mg/kg ip, 72 hours, of eight mice
Protocol: To determine the acute toxicity of dimetilan alone, eight dosage levels of Dimetilan, ranging from 4 to 32 mg per kg wer applied to eight, Swiss, albino, white, male mice per dosage level. The mice weighed approximately 23 to 27 grams and were five to size weeks old. The Dimetilan was administered intraperitoneally in 0.1 ml of corn oil one hour after the administration of the same dose of corn oil alone.
To determine the acute toxicity of the synergist alone, various synergists were administered intraperitoneally at a dose of 1000 mg/kg to each of a group of eight mice. The number of animals dead at the end of 72 hours is reported in the left hand column of Table XXXXVI.

[8] = Dimetilan 8 mg/kg + synergist 240 mg/kg ip
[9] = Dimetilan 8 mg/kg + synergist 80 mg/kg ip

Row | Compound | Contact Synergistic Ratio, Carbaryl (LC50 insecticide alone / LC50 with synergist) [3] | Contact Synergistic Ratio, Pyrolan (LC50 insecticide alone / LC50 with synergist) [3] | Relative Sleeping Time (mice [4]; synergist 110 mg/K) | Mean Sleeping Time (mice [5]) [min] | Relative Sleeping Time (mice [5]) | number of mice dead (mice [6]; [8]) | also measured
1 | CCOP(=S)(OCC)Oc1cc(C)nc(C(C)C)n1 [Diazinon, O,O-diethyl O-(2-isopropyl-4-methyl-6-pyrimidyl) phosphorothioate, reference compound] |  |  |  |  |  |  | mortality at 5 µg/fly ([1]; read-out: mortality, insecticide alone): 10 to 40%; percent kill after 24 hours ([2]; Diazinon alone 0.03 μg/fly, 1440 min): 5%
2 | CNC(=O)Oc1cccc2ccc(C)nc12 [GS 13798, 8-(2-methylquinolyl)-N-methylcarbamate, reference compound] |  |  |  |  |  |  | mortality at 1 µg/fly ([1]; read-out: mortality, insecticide used without synergist): 10 to 40%
3 | C#CCOCc1cc(Cl)c(Cl)cc1Cl [II-F] | 150 | 15 | 1.0 | 38 | 1.3 | 0 | percent mortality 24 hours ([2]; Mobam 0.13 μg/fly, synergist/insecticide 5/1): 23%; Mean Sleeping Time (mice [4]; synergist 110 mg/K): 46 min
4 | C#CCn1ncc2ccc(Cl)cc21 [III-D] | 250 | 25 | 1.2 | 45 | 1.5 | 1 | Mean Sleeping Time (mice [4]; synergist 110 mg/K): 55 min
5 | C#CCOC(c1ccc(Cl)cc1Cl)C(C)[N+](=O)[O-] (stereo not shown) [IV-A, 2-propynyl 1-(2,4-dichlorophenyl)-2-nitropropyl ether] | 134 | 10 |  | 78 | 2.7 | 7 | Mean Sleeping Time (mice [4]; synergist 74 mg/K): 56 min; Relative Sleeping Time (mice [4]; synergist 74 mg/K): 2.3; number of mice dead (mice [6]; [9]): 4
6 | Cc1cc(OC(=O)N(C)C)n(-c2ccccc2)n1 [Pyrolan, 3-methyl-1-phenyl-5-pyrazolyl-N-dimethylcarbamate, reference compound] |  |  |  |  |  |  | LC50 of insecticide alone ([3]; insecticide alone, 24-hour kill): 0.15 mg/jar; 24 hour percent mortality ([2]; Pyrolan alone 0.63 μg/fly): 0%; 24 hour percent mortality ([2]; Pyrolan alone 1.3 μg/fly): 3%; 24 hour percent mortality ([2]; Pyrolan alone 2.5 μg/fly): 10%; 24 hour percent mortality ([2]; Pyrolan alone 5.0 μg/fly): 43%
7 | CCOCCOCCOC(C)Oc1ccc2c(c1)OCO2 (stereo not shown) [Sesoxane, reference compound] |  |  | 8.3 |  | 3.1 | 8 | Relative Sleeping Time (mice [4]; synergist 74 mg/K): 6.1; number of mice dead (mice [7]): 1; number of mice dead (mice [6]; [9]): 8; mice lethality (number dead) (mice [6]; GS 13005 71 mg/kg + synergist 213 mg/kg): 0; mice lethality (number dead) (mice [6]; Methadone 32 mg/kg + synergist 215 mg/kg): 5; mice lethality (number dead) (mice [6]; Secobarbital 90 mg/kg + synergist 215 mg/kg): 6
